From a melting point compilation (Tetko et al.; mined from patent text by program, amines drawn as free bases though some values may be those of a salt)

Row | Compound | melting point
1 | CCOC(=O)C(=O)CC(=O)c1cn(Cc2ccncc2)c2ccccc2c1=O | 168 to 169 °C
2 | O=C(O)C(=Cc1ccc(OCc2ccccc2)cc1OCc1ccccc1)Cc1ccccc1 | 175 to 176 °C
3 | COc1cn(-c2ccc(C3CCOCC3)cc2F)nc(-c2ccnn2-c2ccccc2)c1=O | 187 to 189 °C
4 | O=C(Oc1ccccc1)N1CCCc2nc3ccccc3c(Cl)c2C1 | 137 °C
5 | COc1cc(COc2ncccc2C=O)ccc1OCc1nc(-c2ccco2)oc1C | 120 to 121 °C
6 | CCOC(=O)NC1Cc2ccccc2C1Nc1ccc(OC)cc1CO (stereo not given) | 142 to 144 °C
7 | O=C(Nc1ccc(-c2ncc(-c3ccc(NC(=O)C4CCCCCC4)cc3)[nH]2)cc1)c1ccc([N+](=O)[O-])cc1 | 236 to 238 °C
8 | c1ccc2cc(OCCNC3CCCCC3)ccc2c1 | 89 °C
9 | Cn1c2ccccc2c2nc3cccc(CO)c3nc21 | 201 °C
10 | CCOc1ccc2cc(N3CC(COC)OC3=O)ccc2c1 (stereo not given) | 130 °C
11 | N[C@@H](Cc1c[nH]c2ccccc12)C(=O)N(N)C(=O)[C@H](Cc1c[nH]cn1)NC(=O)[C@@H]1CCC(=O)N1 | 165 to 169 °C
12 | CO/N=C(\C(=O)OC)c1nsc(NC(=O)OC)n1 | 158 to 161 °C
13 | Cc1oc(-c2ccccc2)nc1CN(C)Cc1ccc(C[C@@H](C(=O)O)n2cccc2)cc1 | 133 to 135 °C
14 | NC(=O)C1C(CSSCC2C(C(N)=O)N(Cc3ccccc3)C(=O)N2Cc2ccccc2)N(Cc2ccccc2)C(=O)N1Cc1ccccc1 (stereo not given) | 208 to 211 °C
15 | O=C(O)CCCCN1C(=O)c2ccc(C(=O)O)cc2C1=O | 223 °C
16 | COc1ccc(Oc2nc(Nc3cccc(C(=O)O)c3)nc(Oc3ccc(C=O)cc3OC)n2)cc1 | 180 to 182 °C
17 | CNNC(=O)Nc1ncnc2cc(OC)c(OC)cc12 | 246 to 247 °C
18 | CCc1nc2c(C)cc(C)nc2n1Cc1ccc(-c2ccccc2S(=O)(=O)Nc2onc(C)c2C)c(CN2CCC(C)(C)C2=O)c1 | 95 to 104 °C
19 | CC1(c2cc(N3C(=O)C4=C(CCCC4)C3=O)c(F)cc2Cl)OCCO1 | 147 °C
20 | CCOC(=O)C(C)(C#N)c1cccc(S(=O)(=O)c2ccccc2Cl)c1OC (stereo not given) | 178 to 179 °C
21 | CCc1nnc2c(OC)nc3cc(Cl)ccc3n12 | 221 to 223 °C
22 | CCCC(=NOCC)C1=C(O)CC(c2c(C)c(C)c(C)c3cc(C(C)=O)oc23)CC1=O (stereo not given) | 154 °C
23 | Cc1cccc2nc(C(S)c3ncnc4[nH]cnc34)n(-c3ccccc3Cl)c(=O)c12 (stereo not given) | 228 to 230 °C
24 | C#CCCCCCCCCCCCCCO | 42 to 44 °C
25 | CCC(CC)n1cc(C)nc(N2CCc3cc(Cl)cc(Cl)c32)c1=O | 137 to 139 °C

Row | Compound | melting point
26 | N#Cn1c(-c2ccc(Cl)cc2)c([N+](=O)[O-])c(-c2ccc(Cl)c(Cl)c2)c1C(F)(F)F | 98 to 100 °C
27 | CCOC(=O)c1c(C)c[nH]c1C | 74 to 76 °C
28 | O=C(O)C(Cc1ccccc1)C(=O)NOCc1ccccc1 (stereo not given) | 147 °C
29 | O=C(O)c1ccc(-c2cnc3c(O)ncnc3n2)cc1 | > 300 °C
30 | N#Cc1ccc([C@@H]2[C@@H]3C(=O)N(Cc4ccc5c(c4)OCO5)C(=O)[C@@H]3[C@H]3CCCN32)cc1 (racemic) | 61 to 63 °C
31 | CC(C)c1ccc2c(c1)C(O)(c1ccccn1)CC(C)(C)CO2 (stereo not given) | 72 °C
32 | O=C(O)c1nc2cc(N3CCN(Cc4ccccc4)CC3)c([N+](=O)[O-])cc2[nH]c1=O | 278 to 280 °C
33 | COc1ccc(CCNc2nc(N)n3nc(-c4ccco4)nc3n2)cc1 | 211 to 213 °C
34 | C=CC12CCc3cc(NS(=O)(=O)O)ccc3C1CCC1(C)C(O)CCC12 (stereo not given) | 82 to 86 °C
35 | COc1cc(Br)cc2c(N(C)C)cc(C)nc12 | 115 to 117 °C
36 | CC1CC2C3CCC4=CC(=O)CCC4(C)C3(F)C(O)CC2(C)C1C(=O)CC#N (stereo not given) | 224 °C
37 | O=C(O)c1ccc(OCCCO/N=C/c2ccc(C(F)(F)F)cc2)cc1NC(=O)c1ccccc1C(F)(F)F | 147 to 148 °C
38 | CCC(=O)Oc1n[nH]c(=O)c2nc3cc(Cl)ccc3c(O)c12 | 275 to 278 °C
39 | CN1C(O)=C(C(=O)Nc2ccccc2Cl)c2ccsc2S1(=O)=O | 168 to 170 °C
40 | C=C(C)OC1OC(n2cc(C)c(=O)n(CC(=O)c3ccccc3)c2=O)CC1OC(=O)c1ccccc1 (stereo not given) | 112 to 113 °C
41 | NS(=O)(=O)c1ccc(S(=O)(=O)CCCO)c(C(=O)O)c1 | 170 °C
42 | N#Cc1ccc(F)cc1-c1ccc(OCc2ccccc2)cc1 | 94 to 96 °C
43 | CCOC(=O)c1ccc2oc3ccc(OC)cc3c(=O)c2c1 | 170 to 172 °C
44 | COc1ccc(S(=O)(=O)NCCCCCCCC(=O)O)cc1 | 102 to 103 °C
45 | COc1ccc(C(O)CCSc2ccc(S(N)(=O)=O)s2)cc1 (stereo not given) | 111 to 112 °C
46 | CN1c2cscc2C(=O)N(CCN2CCCCC2)c2ccccc21 | 84 to 88 °C
47 | C=CC(C)(CCC=C(C)C)OCC(=O)c1cc(C(C)C)c(O)c(C(C)C)c1 (stereo not given) | 71 to 72 °C
48 | CC(C)(C)OC(=O)CC(=O)c1cc2ccccc2cc1O | 80 to 84 °C
49 | O=CC1CCN1C(c1ccccc1)c1ccccc1 (stereo not given) | 85 to 86 °C
50 | COC(=O)CCC(=O)c1cc2c(cc1Cl)CC(NC(=O)OC)CC2 (stereo not given) | 86 to 89 °C
